Experiments:
Adenosine A2A receptor = Adenosine A2A receptor (Homo sapiens (Human), UniProt P29274); test: A2A Tag-Lite HTRF assay; type: binding; details: Tag-Lite Adenosine A2A labeled cells, displacement of A2A Receptor Red antagonist fluorescent ligand 12.5 nM; read-out: A2A_Ki
Description: Example C. A2A Tag-Lite® HTRF Assay
The final concentration of DMSO was 1%.

[1] = target: human adenosine A2B receptor (Homo sapiens (Human), UniProt P29275); test: Adenosine A2B Receptor Cyclic AMP GS Assay; type: cell-based; details: HEK-293 cells expressing human A2B receptor, agonist NECA 12 nM, cAMP accumulation; read-out: A2B_cAMP_EC50
Experimental: Example B. Adenosine A2B Receptor Cyclic AMP GS Assay
Stably transfected HEK-293 cells expressing the human adenosine A2B receptor (Perkin Elmer) were maintained in MEM culture medium with 10% FBS and 100 μg/mL Geneticin (Life Technologies). 18 to 24 hours prior to assay, geneticin was removed from culture. The cisbio cAMP-GS Dynamic kit utilizing the FRET (Fluorescence Resonance Energy Transfer) technology was used to measure cAMP accumulation in the cells. Compounds of the present disclosure at an appropriate concentration were mixed with 10000 cells/well in white 96 well half area plates (Perkin Elmer) for 30 min at room temperature gently shaking. Agonist, NECA (R&D Technologies) at 12 nM was added to each well for 60 min at room temperature gently shaking. Detection reagents, d2-labeled cAMP (acceptor) and anti-cAMP cryptate (donor) were added to each well for 60 min at RT gently shaking. Plates were read on Pherastar (BMG Labtech), fluorescence ratio 665/620 was calculated and EC50 determination was performed by fitting the curve of percent of control versus the log of the compound concentration using GraphPad Prism.

Adenosine A2A receptor, sequence (P29274 whole entry): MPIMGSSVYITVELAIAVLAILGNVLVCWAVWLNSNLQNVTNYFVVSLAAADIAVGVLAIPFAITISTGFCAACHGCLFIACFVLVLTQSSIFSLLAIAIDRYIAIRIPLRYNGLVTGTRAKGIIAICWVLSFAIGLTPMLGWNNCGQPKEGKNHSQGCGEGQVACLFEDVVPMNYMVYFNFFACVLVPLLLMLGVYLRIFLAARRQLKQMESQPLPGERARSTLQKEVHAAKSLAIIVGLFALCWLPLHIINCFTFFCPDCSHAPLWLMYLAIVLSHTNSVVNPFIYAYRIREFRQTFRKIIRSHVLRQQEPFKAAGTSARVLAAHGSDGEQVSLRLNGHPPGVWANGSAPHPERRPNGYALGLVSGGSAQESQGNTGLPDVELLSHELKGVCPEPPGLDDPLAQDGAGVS
human adenosine A2B receptor, sequence (P29275 whole entry): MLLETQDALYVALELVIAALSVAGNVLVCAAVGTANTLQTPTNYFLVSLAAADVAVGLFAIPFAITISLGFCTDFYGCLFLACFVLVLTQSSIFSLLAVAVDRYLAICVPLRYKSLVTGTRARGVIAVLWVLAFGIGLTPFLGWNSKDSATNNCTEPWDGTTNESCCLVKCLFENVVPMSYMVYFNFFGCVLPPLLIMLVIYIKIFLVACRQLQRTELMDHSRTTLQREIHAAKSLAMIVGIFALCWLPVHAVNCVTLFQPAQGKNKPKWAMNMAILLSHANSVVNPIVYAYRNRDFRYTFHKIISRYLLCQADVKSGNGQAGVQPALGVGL

Row | SMILES | Ki (Adenosine A2A receptor) [nM] | EC50 [1] [nM]
1 | CN1CCC(NCc2cccc(F)c2C(O)c2nc3cc(-c4cccc(C#N)c4F)nc(N)n3n2)C1=O (single isomer, unassigned) [Example 16, 3-(5-Amino-2-((2-fluoro-6-(((1-methyl-2-oxopyrrolidin-3-yl)amino)methyl)phenyl)(hydroxy)methyl)-[1,2,4]triazolo[1,5-c]pyrimidin-7-yl)-2-fluorobenzonitrile] | < 10 | 10 to 100
2 | N#Cc1cccc(-c2cc3nc(C(O)c4ccccc4)nn3c(N)n2)c1 (stereo not shown) [Example 1, 3-(5-Amino-2-(hydroxy(phenyl)methyl)-[1,2,4]triazolo[1,5-c]pyrimidin-7-yl)benzonitrile] | < 10 | < 10
3 | N#Cc1cccc(-c2cc3nc(Cc4ccccc4)nn3c(N)n2)c1 [Example 2, 3-(5-Amino-2-benzyl-[1,2,4]triazolo[1,5-c]pyrimidin-7-yl)benzonitrile] | < 10 | < 10
4 | N#Cc1cccc(-c2cc3nc(Cc4ccccn4)nn3c(N)n2)c1 [Example 3, 3-(5-Amino-2-(pyridin-2-ylmethyl)-[1,2,4]triazolo[1,5-c]pyrimidin-7-yl)benzonitrile] | < 10 | < 10
5 | N#Cc1cccc(-c2cc3nc(CC4CCCCC4)nn3c(N)n2)c1 [Example 4, 3-(5-Amino-2-(cyclohexylmethyl)-[1,2,4]triazolo[1,5-c]pyrimidin-7-yl)benzonitrile] | < 10 | 100 to 1000
6 | Cn1cc(-c2cccc(Cc3nc4cc(-c5cccc(C#N)c5)nc(N)n4n3)c2)cn1 [Example 5, 3-(5-Amino-2-(3-(1-methyl-1H-pyrazol-4-yl)benzyl)-[1,2,4]triazolo[1,5-c]pyrimidin-7-yl)benzonitrile] | < 10 | 100 to 1000
7 | N#Cc1cccc(-c2cc3nc(CN4CCCC4=O)nn3c(N)n2)c1 [Example 6, 3-(5-Amino-2-((2-oxopyrrolidin-1-yl)methyl)-[1,2,4]triazolo[1,5-c]pyrimidin-7-yl)benzonitrile] | < 10 | 100 to 1000
8 | Cn1ccnc1Cc1nc2cc(-c3cccc(C#N)c3)nc(N)n2n1 [Example 7, 3-(5-Amino-2-((1-methyl-1H-imidazol-2-yl)methyl)-[1,2,4]triazolo[1,5-c]pyrimidin-7-yl)benzonitrile] | < 10 | 10 to 100
9 | N#Cc1cccc(-c2cc3nc(C(N)c4ccccc4)nn3c(N)n2)c1 (stereo not shown) [Example 8, 3-(5-Amino-2-(amino(phenyl)methyl)-[1,2,4]triazolo[1,5-c]pyrimidin-7-yl)benzonitrile] | < 10 | 100 to 1000
10 | N#Cc1cccc(-c2nc(N)n3nc(Cc4ccccc4)nc3c2CO)c1 [Example 9, 3-(5-Amino-2-benzyl-8-(hydroxymethyl)-[1,2,4]triazolo[1,5-c]pyrimidin-7-yl)benzonitrile] | < 10 | 10 to 100
11 | N#Cc1cccc(-c2cc3nc(Nc4ccccc4)nn3c(N)n2)c1 [Example 10, 3-(5-Amino-2-(phenylamino)-[1,2,4]triazolo[1,5-c]pyrimidin-7-yl)benzonitrile] | < 10 | 100 to 1000
12 | N#Cc1cccc(-c2cc3nc(Cc4ccccc4)cn3c(N)n2)c1 [Example 11, 3-(5-Amino-2-benzylimidazo[1,2-c]pyrimidin-7-yl)benzonitrile] | < 10 | 10 to 100
13 | CCNC(=O)c1nc2cc(-c3cccc(C#N)c3)nc(N)n2n1 [Example 12, 5-Amino-7-(3-cyanophenyl)-N-ethyl-[1,2,4]triazolo[1,5-c]pyrimidine-2-carboxamide] | < 10 | > 1000
14 | Cc1c(C#N)cccc1-c1cc2nc(C(O)c3c(F)cccc3F)nn2c(N)n1 (stereo not shown) [Example 13, 3-(5-Amino-2-((2,6-difluorophenyl)(hydroxy)methyl)-[1,2,4]triazolo[1,5-c]pyrimidin-7-yl)-2-methylbenzonitrile] | < 10 | 10 to 100
15 | N#Cc1cccc(-c2cc3nc(C(O)c4c(F)cccc4F)nn3c(N)n2)c1F (stereo not shown) [Example 14, 3-(5-Amino-2-((2,6-difluorophenyl)(hydroxy)methyl)-[1,2,4]triazolo[1,5-c]pyrimidin-7-yl)-2-fluorobenzonitrile] | < 10 | < 10
16 | N#Cc1cccc(-c2nc(N)n3nc(C(O)c4c(F)cccc4F)nc3c2C#N)c1F (stereo not shown) [Example 15, 5-Amino-7-(3-cyano-2-fluorophenyl)-2-((2,6-difluorophenyl)(hydroxy)methyl)-[1,2,4]triazolo[1,5-c]pyrimidine-8-carbonitrile] | < 10 | < 10
17 | CN1CCC2(CN(Cc3cccc(F)c3C(O)c3nc4cc(-c5cccc(C#N)c5F)nc(N)n4n3)C2)C1=O (stereo not shown) [Example 17, 3-(5-Amino-2-((2-fluoro-6-((6-methyl-5-oxo-2,6-diazaspiro[3.4]octan-2-yl)methyl)phenyl)(hydroxy)methyl)-[1,2,4]triazolo[1,5-c]pyrimidin-7-yl)-2-fluorobenzonitrile] | < 10 | 10 to 100
18 | CCN(Cc1cccc(F)c1C(O)c1nc2cc(-c3cccc(C#N)c3F)nc(N)n2n1)[C@H]1CCNC1=O (stereo partly drawn) [Example 18, 3-(5-Amino-2-((2-((ethyl((S)-2-oxopyrrolidin-3-yl)amino)methyl)-6-fluorophenyl)(hydroxy)methyl)-[1,2,4]triazolo[1,5-c]pyrimidin-7-yl)-2-fluorobenzonitrile] | < 10 | < 10
19 | N#Cc1cccc(-c2cc3nc(Cc4c(F)cccc4CNC4CCN(CC(=O)O)C4=O)nn3c(N)n2)c1F (stereo not shown) [Example 19, 2-(3-((2-((5-Amino-7-(3-cyano-2-fluorophenyl)-[1,2,4]triazolo[1,5-c]pyrimidin-2-yl)methyl)-3-fluorobenzyl)amino)-2-oxopyrrolidin-1-yl)acetic acid] | < 10 | 10 to 100
20 | N#Cc1cccc(-c2cc3nc(Cc4c(F)cccc4CN[C@@H]4CCOC4=O)nn3c(N)n2)c1F [Example 20, (R)-3-(5-Amino-2-(2-fluoro-6-(((2-oxotetrahydrofuran-3-yl)amino)methyl)benzyl)-[1,2,4]triazolo[1,5-c]pyrimidin-7-yl)-2-fluorobenzonitrile] | < 10 | < 10
21 | N#Cc1cccc(-c2cc3nc(Cc4c(F)cccc4CN[C@@H]4CCNC4=O)nn3c(N)n2)c1F [Example 21, (R)-3-(5-Amino-2-(2-fluoro-6-(((2-oxopyrrolidin-3-yl)amino)methyl)benzyl)-[1,2,4]triazolo[1,5-c]pyrimidin-7-yl)-2-fluorobenzonitrile] | < 10 | < 10
22 | N#Cc1cccc(-c2cc3nc(Cc4c(F)cccc4CN[C@H]4CCNC4=O)nn3c(N)n2)c1F [Example 22, (S)-3-(5-Amino-2-(2-fluoro-6-(((2-oxopyrrolidin-3-yl)amino)methyl)benzyl)-[1,2,4]triazolo[1,5-c]pyrimidin-7-yl)-2-fluorobenzonitrile] | < 10 | < 10
23 | N#Cc1cccc(-c2cc3nc(Cc4c(F)cccc4CN4CCC(c5nn[nH]n5)C4)nn3c(N)n2)c1F (stereo not shown) [Example 23, 3-(2-(2-((3-(2H-Tetrazol-5-yl)pyrrolidin-1-yl)methyl)-6-fluorobenzyl)-5-amino-[1,2,4]triazolo[1,5-c]pyrimidin-7-yl)-2-fluorobenzonitrile] | < 10 | 10 to 100
